Measured values reported in patent US20240376098A1, “METHODS OF TREATMENT USING BCN057, BCN077 AND ANALOGS” (BCN Biosciences L.L.C., priority 2021, published 2024).

How the values were obtained:
c-Jun = test: Western blot of Phospho-c-Jun (T-91/93) in Panc-1 cells; format: cell-based, human
Description: Western Blot: Cells were harvested and lysed in cell lysis buffer on ice for 15 minutes and the lysate was centrifuged at 13,000 rpm at 4° C. for 10 minutes. The supernatant was transferred into a new tube for BCA protein quantification assay (Thermo Fisher Scientific) and the samples were normalized. 3× loading buffer (Cell Signaling) was added the protein sample and boiled for 5 minutes. The samples were used for SDS-PAGE analysis and transferred to nitrocellulose membrane. The membrane was blocked with 5% BSA at room temperature for 1 hour and incubated with primary antibody at 4° C. overnight. The membrane was washed with 1×TBST 5 minutes for 3 times and incubated with horseradish peroxidase-conjugated secondary antibody for 1 hour at room temperature. The protein was visualized by SuperSignal West Pico Stable Peroxide Solution (Thermo Fisher Scientific). The blot was visualized by chemiluminescence using a BioRad Versadoc Imaging System. Phosphorylation at T 91/93 in c-Jun was measured as a function of total c-Jun. Significant phosphorylation at T 91/93 was observed which has been reported to be associated with the activation of c-Jun's pro-apoptotic activity. […] FIG. 4A is a western blot of Phospho-c-Jun (T-91/93). […] Phosphorylation of c-Jun at T-91/93 is known to induce apoptosis. Total c-Jun protein level was unchanged. […]

[1] = tested on: c-Jun in non-transformed HEK298 epithelial cells; test: c-Jun T 91/93 phosphorylation in non-transformed cells; format: cell-based; settings: data not shown
Description: Phosphorylation at T 91/93 in c-Jun was measured as a function of total c-Jun. Significant phosphorylation at T 91/93 was observed which has been reported to be associated with the activation of c-Jun's pro-apoptotic activity.

[2] = target: T1, GSK3b in non-transformed cell types such as HEK298 (Homo sapiens, UniProt P49841); test: GSK3b inhibition in non-transformed cells; format: cell-based
T1 construct: endogenous in cells; host or cells: HEK298 (so in the source)
T1 sequence (P49841 whole entry): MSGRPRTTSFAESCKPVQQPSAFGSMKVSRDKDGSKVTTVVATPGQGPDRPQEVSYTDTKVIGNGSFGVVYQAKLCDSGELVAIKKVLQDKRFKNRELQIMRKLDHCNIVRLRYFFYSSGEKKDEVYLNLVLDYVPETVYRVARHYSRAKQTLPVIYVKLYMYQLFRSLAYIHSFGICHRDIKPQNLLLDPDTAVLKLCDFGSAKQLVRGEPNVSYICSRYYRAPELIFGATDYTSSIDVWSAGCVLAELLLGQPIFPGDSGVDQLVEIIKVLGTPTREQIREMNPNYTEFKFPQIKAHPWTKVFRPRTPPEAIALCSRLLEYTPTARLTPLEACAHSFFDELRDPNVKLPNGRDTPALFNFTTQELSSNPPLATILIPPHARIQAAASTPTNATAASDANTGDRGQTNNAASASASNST
Description: (§1) To investigate the role BCN057 may have in the restoration of apoptosis in this cell line, the GSK3b-c-Jun relationship was assessed as it has been directly linked to apoptosis. Others have reported a link with GSK3b and c-Jun and apoptosis along with the fact that […] is over expressed in the oncogenic KRAS phenotype.

GSK3b = target: T2, GSK3b (Homo sapiens, UniProt P49841); test: Western blot of GSK3b phosphorylation at S-9 in Panc1 cells; format: cell-based; settings: 10 μM BCN057, over time
T2 construct: endogenous in cells; host or cells: Panc-1
T2 sequence (P49841 whole entry): as above
Description: Western Blot: Cells were harvested and lysed in cell lysis buffer on ice for 15 minutes and the lysate was centrifuged at 13,000 rpm at 4° C. for 10 minutes. The supernatant was transferred into a new tube for BCA protein quantification assay (Thermo Fisher Scientific) and the samples were normalized. 3× loading buffer (Cell Signaling) was added the protein sample and boiled for 5 minutes. The samples were used for SDS-PAGE analysis and transferred to nitrocellulose membrane. The membrane was blocked with 5% BSA at room temperature for 1 hour and incubated with primary antibody at 4° C. overnight. The membrane was washed with 1×TBST 5 minutes for 3 times and incubated with horseradish peroxidase-conjugated secondary antibody for 1 hour at room temperature. The protein was visualized by SuperSignal West Pico Stable Peroxide Solution (Thermo Fisher Scientific). The blot was visualized by chemiluminescence using a BioRad Versadoc Imaging System.
as §1

[3] = tested on: KRASG13R mutant MC38 tumor cell line; settings: cited from earlier work

With `COc1ccc2cc(-c3nc4ccc(C)cn4c3NCc3ccco3)c(=O)[nH]c2c1` [BCN057, 3-[(Furan-2-ylmethyl)-amino]-2-(7-methoxy-2-oxo-1,2-dihydro-quinolin-3-yl)-6-methyl-imidazo[1,2-a]pyridin-1-ium] as the molecule, how does the “c-Jun phosphorylation at T-91/93” value (c-Jun; KRAS mutant Panc-1 cells, within 20 minutes after drug treatment) read?
Its value is “significantly increases JNK dependent phosphorylation”.

And the “Total c-Jun protein level” value (c-Jun; Panc-1 cells)?
The value was “unchanged”.

And the “c-Jun pro-apoptotic activity (T 91/93 phosphorylation)” value [1]?
The value was “not found to be induced”.

And the GSK3b inhibition [2]?
The GSK3b inhibition was “inhibition was noted”.

What about the “GSK3b phosphorylation at S-9” value (GSK3b) of the same molecule?
Its value is “rapid induction of phosphorylation at S-9”.

And the Tolerated radiation dose ([3]; BCN057 with radiation treatment versus radiation alone)?
Its Tolerated radiation dose is “able to tolerate much higher radiation doses”.

What about the Tumor burden ([3]; mice receiving BCN057 versus control) of the same molecule?
Its Tumor burden is “significantly lower tumor burden than control”.
